Assay results published in ChEMBL document CHEMBL3991601, “The target landscape of clinical kinase drugs” (Science, 2017).
Calls of active or inactive are those of the source.

What was measured:
[1] = target: T1, Mitogen-activated protein kinase kinase kinase 2 (Homo sapiens, UniProt Q9Y2U5)
T1 sequence (Q9Y2U5 whole entry): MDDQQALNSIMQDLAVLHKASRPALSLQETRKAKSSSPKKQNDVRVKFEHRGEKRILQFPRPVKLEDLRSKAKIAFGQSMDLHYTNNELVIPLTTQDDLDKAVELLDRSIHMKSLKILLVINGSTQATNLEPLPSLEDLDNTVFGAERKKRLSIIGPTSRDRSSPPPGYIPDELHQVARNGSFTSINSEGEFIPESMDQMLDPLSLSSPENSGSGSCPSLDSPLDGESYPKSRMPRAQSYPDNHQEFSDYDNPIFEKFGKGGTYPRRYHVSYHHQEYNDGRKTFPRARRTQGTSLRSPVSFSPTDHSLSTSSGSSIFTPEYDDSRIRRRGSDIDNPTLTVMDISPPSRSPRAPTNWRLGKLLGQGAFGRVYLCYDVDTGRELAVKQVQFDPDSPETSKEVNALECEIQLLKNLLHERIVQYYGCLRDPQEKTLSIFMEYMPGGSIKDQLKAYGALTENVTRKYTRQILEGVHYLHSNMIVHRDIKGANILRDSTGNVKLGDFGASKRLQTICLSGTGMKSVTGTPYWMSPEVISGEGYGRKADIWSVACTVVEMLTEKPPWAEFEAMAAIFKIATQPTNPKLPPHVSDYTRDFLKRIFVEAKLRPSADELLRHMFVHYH

[2] = target: T2, Phosphorylase b kinase gamma catalytic chain, liver/testis isoform (Homo sapiens, UniProt P15735)
T2 sequence (P15735 whole entry): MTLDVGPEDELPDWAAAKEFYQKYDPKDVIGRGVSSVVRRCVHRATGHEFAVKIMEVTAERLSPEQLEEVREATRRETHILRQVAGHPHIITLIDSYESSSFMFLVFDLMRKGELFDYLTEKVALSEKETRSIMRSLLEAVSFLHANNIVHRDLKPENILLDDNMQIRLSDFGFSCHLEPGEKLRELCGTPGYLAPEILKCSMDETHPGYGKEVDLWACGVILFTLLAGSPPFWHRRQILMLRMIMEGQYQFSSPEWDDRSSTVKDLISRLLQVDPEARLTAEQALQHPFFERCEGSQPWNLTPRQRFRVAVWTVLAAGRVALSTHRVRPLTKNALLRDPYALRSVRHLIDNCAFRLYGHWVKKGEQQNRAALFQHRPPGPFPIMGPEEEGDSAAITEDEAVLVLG

[3] = target: RAC-alpha serine/threonine-protein kinase (Homo sapiens, UniProt P31749)
Sequence of RAC-alpha serine/threonine-protein kinase (P31749 whole entry): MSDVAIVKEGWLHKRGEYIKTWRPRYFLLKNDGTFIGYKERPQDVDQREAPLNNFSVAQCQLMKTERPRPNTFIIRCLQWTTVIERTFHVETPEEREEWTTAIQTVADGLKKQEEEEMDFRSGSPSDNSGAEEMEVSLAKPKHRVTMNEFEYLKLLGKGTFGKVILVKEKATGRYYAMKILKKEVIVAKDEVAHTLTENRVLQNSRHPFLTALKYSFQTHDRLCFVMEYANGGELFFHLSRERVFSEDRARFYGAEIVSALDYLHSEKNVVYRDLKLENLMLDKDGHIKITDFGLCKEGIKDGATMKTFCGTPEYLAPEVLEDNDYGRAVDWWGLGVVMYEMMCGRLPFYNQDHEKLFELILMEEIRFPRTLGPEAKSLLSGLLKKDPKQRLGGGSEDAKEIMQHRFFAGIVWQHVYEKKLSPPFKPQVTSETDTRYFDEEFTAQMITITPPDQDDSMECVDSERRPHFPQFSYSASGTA

[4] = target: Tyrosine-protein kinase Fyn (Homo sapiens, UniProt P06241)
Sequence of Tyrosine-protein kinase Fyn (P06241 whole entry): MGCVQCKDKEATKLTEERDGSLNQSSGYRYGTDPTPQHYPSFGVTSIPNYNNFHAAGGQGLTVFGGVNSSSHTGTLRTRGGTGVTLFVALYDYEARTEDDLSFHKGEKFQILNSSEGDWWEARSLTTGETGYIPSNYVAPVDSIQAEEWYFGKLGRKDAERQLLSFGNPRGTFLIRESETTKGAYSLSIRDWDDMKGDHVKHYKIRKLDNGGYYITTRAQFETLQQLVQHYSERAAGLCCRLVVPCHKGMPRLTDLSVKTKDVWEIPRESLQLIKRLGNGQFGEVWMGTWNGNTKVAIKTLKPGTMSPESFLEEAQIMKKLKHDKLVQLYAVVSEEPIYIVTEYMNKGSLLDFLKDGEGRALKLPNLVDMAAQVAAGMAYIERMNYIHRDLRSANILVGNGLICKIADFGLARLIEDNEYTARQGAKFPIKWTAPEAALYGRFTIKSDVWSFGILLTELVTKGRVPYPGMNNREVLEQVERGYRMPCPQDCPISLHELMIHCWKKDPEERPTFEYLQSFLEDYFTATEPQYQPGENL

[5] = target: T3, Heme oxygenase 2 (Homo sapiens, UniProt P30519)
T3 sequence (P30519 whole entry): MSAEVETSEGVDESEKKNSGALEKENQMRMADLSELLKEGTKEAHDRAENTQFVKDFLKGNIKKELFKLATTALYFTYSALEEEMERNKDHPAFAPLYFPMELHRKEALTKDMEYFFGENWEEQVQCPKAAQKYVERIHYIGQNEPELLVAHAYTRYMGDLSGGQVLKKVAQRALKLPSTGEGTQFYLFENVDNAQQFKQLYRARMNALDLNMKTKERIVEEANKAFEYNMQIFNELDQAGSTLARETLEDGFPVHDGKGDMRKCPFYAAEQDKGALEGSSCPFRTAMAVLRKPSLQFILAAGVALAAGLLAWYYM

[6] = target: T4, Dual specificity mitogen-activated protein kinase kinase 5 (Homo sapiens, UniProt Q13163)
T4 sequence (Q13163 whole entry): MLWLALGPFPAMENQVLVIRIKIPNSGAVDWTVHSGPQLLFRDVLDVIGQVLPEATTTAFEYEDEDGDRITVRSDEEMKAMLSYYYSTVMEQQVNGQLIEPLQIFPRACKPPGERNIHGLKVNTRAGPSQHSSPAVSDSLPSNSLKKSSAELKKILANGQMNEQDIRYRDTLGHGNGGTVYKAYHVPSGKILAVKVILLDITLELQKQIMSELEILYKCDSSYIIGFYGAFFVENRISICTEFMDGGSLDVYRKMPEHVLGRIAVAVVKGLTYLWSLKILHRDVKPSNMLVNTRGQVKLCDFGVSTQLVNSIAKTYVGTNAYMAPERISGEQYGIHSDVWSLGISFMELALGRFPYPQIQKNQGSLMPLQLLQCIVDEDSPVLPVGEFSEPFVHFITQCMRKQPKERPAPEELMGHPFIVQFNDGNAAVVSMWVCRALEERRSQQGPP

[7] = target: Serine/threonine-protein kinase/endoribonuclease IRE2 (Homo sapiens, UniProt Q76MJ5)
Sequence of Serine/threonine-protein kinase/endoribonuclease IRE2 (Q76MJ5 whole entry): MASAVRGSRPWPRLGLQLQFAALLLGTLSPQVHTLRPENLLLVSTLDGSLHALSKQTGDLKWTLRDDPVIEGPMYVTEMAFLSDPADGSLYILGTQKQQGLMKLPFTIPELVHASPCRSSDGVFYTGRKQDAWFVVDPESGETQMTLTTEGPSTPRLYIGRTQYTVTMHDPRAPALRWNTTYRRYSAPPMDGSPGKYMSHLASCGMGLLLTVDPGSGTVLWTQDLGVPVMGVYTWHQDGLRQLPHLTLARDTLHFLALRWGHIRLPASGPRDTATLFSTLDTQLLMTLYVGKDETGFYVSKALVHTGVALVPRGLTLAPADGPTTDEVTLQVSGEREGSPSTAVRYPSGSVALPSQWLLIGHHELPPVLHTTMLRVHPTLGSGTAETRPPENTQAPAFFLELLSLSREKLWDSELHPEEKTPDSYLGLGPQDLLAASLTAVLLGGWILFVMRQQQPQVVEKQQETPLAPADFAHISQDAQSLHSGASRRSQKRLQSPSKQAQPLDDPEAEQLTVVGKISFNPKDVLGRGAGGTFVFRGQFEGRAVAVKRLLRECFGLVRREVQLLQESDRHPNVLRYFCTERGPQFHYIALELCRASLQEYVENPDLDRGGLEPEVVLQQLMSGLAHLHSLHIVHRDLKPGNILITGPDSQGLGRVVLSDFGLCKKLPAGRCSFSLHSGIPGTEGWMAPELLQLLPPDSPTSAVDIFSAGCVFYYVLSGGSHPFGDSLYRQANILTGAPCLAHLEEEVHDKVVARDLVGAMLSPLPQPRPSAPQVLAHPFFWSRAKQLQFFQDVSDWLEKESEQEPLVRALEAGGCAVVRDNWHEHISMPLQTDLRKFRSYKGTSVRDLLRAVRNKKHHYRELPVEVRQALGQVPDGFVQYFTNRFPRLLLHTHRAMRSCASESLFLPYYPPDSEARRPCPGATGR

[8] = target: Interleukin-1 receptor-associated kinase 1 (Homo sapiens, UniProt P51617)
Sequence of Interleukin-1 receptor-associated kinase 1 (P51617 whole entry): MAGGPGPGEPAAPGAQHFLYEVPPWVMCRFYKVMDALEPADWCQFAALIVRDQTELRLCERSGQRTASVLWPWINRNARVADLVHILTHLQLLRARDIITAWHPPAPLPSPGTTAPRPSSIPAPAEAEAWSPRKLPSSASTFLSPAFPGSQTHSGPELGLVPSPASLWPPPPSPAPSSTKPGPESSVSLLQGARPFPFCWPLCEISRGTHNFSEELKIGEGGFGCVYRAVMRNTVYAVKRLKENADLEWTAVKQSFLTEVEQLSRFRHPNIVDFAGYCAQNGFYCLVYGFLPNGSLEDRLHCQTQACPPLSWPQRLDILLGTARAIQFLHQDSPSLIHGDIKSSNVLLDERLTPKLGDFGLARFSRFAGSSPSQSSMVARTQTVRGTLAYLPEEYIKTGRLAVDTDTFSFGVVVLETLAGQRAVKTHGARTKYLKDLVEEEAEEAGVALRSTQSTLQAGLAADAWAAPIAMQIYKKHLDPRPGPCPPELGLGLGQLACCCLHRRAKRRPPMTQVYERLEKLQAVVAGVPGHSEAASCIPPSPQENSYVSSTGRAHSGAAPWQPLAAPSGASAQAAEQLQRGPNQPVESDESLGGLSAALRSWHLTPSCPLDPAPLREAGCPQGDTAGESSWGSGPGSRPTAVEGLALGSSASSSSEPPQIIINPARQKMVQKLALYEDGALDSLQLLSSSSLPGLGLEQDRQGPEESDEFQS

[9] = target: T5, ATP-dependent RNA helicase DDX1 (Homo sapiens, UniProt Q92499)
T5 sequence (Q92499 whole entry): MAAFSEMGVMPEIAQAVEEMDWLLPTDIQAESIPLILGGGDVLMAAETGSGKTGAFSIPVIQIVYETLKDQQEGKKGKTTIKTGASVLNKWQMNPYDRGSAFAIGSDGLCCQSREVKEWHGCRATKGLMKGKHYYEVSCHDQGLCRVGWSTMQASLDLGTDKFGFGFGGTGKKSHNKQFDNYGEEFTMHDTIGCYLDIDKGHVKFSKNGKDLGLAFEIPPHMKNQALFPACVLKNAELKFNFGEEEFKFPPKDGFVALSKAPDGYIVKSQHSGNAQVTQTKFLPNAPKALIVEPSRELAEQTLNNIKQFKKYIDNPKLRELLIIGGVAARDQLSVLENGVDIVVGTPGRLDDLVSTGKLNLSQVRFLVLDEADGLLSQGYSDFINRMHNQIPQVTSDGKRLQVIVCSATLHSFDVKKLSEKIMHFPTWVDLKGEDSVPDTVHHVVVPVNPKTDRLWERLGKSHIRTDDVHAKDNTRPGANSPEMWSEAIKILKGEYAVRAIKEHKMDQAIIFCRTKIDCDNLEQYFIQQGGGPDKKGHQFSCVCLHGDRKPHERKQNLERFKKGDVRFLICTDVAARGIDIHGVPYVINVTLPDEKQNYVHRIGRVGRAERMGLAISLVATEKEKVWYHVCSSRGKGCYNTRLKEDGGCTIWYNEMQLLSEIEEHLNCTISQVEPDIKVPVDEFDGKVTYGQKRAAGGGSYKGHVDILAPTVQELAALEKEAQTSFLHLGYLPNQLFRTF
Also: in the data inactive means no Kd found up to 30 µM.

Compound | Kd [1] | Kd [2] | Kd [3] | Kd [4] | Kd [5] | Kd [6] | Kd [7] | Kd [8] | Kd [9]
C[C@@H](Oc1cc(C(=O)Nc2ccc(C(=O)N3CCN(C)CC3)cc2)nnc1N)c1c(Cl)ccc(F)c1Cl | > 30 µM (inactive) | > 30 µM (inactive) | > 30 µM (inactive) | > 30 µM (inactive) | > 30 µM (inactive) | > 30 µM (inactive) | > 30 µM (inactive) | > 30 µM (inactive) | –
CC(=O)c1cnc2ccc(-c3cc(Cl)c(O)c(Cl)c3)nc2c1N[C@H]1CC[C@H](CN(C)C)CC1 | – | 0.397 µM (active) | > 30 µM (inactive) | 0.125 µM (active) | > 30 µM (inactive) | 0.058 µM (active) | > 30 µM (inactive) | – | > 30 µM (inactive)
Cc1nc2cc(-c3nn(C(C)C)c4ncnc(N)c34)ccc2o1 | > 30 µM (inactive) | > 30 µM (inactive) | > 30 µM (inactive) | > 30 µM (inactive) | > 30 µM (inactive) | – | > 30 µM (inactive) | > 30 µM (inactive) | > 30 µM (inactive)
COc1cc(Nc2ncc3c(n2)-c2ccc(Cl)cc2C(c2c(F)cccc2OC)=NC3)ccc1C(=O)O [ALISERTIB] | > 30 µM (inactive) | – | – | – | > 30 µM (inactive) | > 30 µM (inactive) | > 30 µM (inactive) | – | > 30 µM (inactive)
CNC(=O)c1ccccc1Sc1ccc2c(/C=C/c3ccccn3)n[nH]c2c1 [AXITINIB] | – | – | – | – | > 30 µM (inactive) | – | > 30 µM (inactive) | – | > 30 µM (inactive)
CC(C)(C)c1nc(-c2cccc(NS(=O)(=O)c3c(F)cccc3F)c2F)c(-c2ccnc(N)n2)s1 [DABRAFENIB] | > 30 µM (inactive) | > 30 µM (inactive) | – | – | > 30 µM (inactive) | 2.29 µM (active) | 0.116 µM | – | > 30 µM (inactive)
Cn1cc(C2=C(c3cn(C4CCN(Cc5ccccn5)CC4)c4ccccc34)C(=O)NC2=O)c2ccccc21 [ENZASTAURIN] | – | – | – | – | > 30 µM (inactive) | – | > 30 µM (inactive) | – | > 30 µM (inactive)
Cc1nc2cc(-n3ncc(C(=O)c4cc5ccccc5[nH]4)c3N)ccc2[nH]1 [FGFR INHIBITOR DEBIO 1347] | > 30 µM (inactive) | > 30 µM (inactive) | > 30 µM (inactive) | > 30 µM (inactive) | – | > 30 µM (inactive) | > 30 µM (inactive) | > 30 µM (inactive) | > 30 µM (inactive)
CNC(=O)c1nn(C)c2c1C(C)(C)Cc1cnc(Nc3ccc(N4CCN(C)CC4)cc3)nc1-2 [MILCICLIB] | > 30 µM (inactive) | 18.6 µM | > 30 µM (inactive) | 1.44 µM (active) | > 30 µM (inactive) | > 30 µM (inactive) | > 30 µM (inactive) | 2.06 µM (active) | –
Cc1[nH]c(/C=C2\C(=O)Nc3ccccc32)c(C)c1CCC(=O)O [ORANTINIB] | > 30 µM (inactive) | – | – | – | > 30 µM (inactive) | 4.94 µM (active) | > 30 µM (inactive) | – | > 30 µM (inactive)
CCOc1cc2ncc(C#N)c(Nc3ccc(F)c(Cl)c3)c2cc1NC(=O)/C=C/CN(C)C [PELITINIB] | > 30 µM (inactive) | > 30 µM (inactive) | > 30 µM (inactive) | – | > 30 µM (inactive) | > 30 µM (inactive) | > 30 µM (inactive) | > 30 µM (inactive) | > 30 µM (inactive)
CNC(=O)c1cc(Oc2ccc(NC(=O)Nc3cc(C(C)(C)C)nn3-c3ccc4ncccc4c3)c(F)c2)ccn1 [REBASTINIB] | > 30 µM (inactive) | > 30 µM (inactive) | > 30 µM (inactive) | – | > 30 µM (inactive) | > 30 µM (inactive) | > 30 µM (inactive) | – | > 30 µM (inactive)
N#CC[C@H](C1CCCC1)n1cc(-c2ncnc3[nH]ccc23)cn1 [RUXOLITINIB] | – | – | – | – | > 30 µM (inactive) | – | > 30 µM (inactive) | – | > 30 µM (inactive)
CN1CCN(CCOc2cc(OC3CCOCC3)c3c(Nc4c(Cl)ccc5c4OCO5)ncnc3c2)CC1 [SARACATINIB] | > 30 µM (inactive) | > 30 µM (inactive) | > 30 µM (inactive) | – | > 30 µM (inactive) | – | > 30 µM (inactive) | > 30 µM (inactive) | > 30 µM (inactive)
Cn1ncc(Cl)c1-c1cc(C(=O)N[C@H](CN)Cc2ccc(F)c(F)c2)oc1Cl [UPROSERTIB] | > 30 µM (inactive) | > 30 µM (inactive) | – | > 30 µM (inactive) | – | > 30 µM (inactive) | > 30 µM (inactive) | > 30 µM (inactive) | > 30 µM (inactive)

Other lines, results leading:

Kd [1] | Kd [2] | Kd [3] | Kd [4] | Kd [5] | Kd [6] | Kd [7] | Kd [8] | Kd [9] | Compound
0.277 µM (active) | – | > 30 µM (inactive) | – | > 30 µM (inactive) | 0.047 µM (active) | > 30 µM (inactive) | > 30 µM (inactive) | > 30 µM (inactive) | O=C(Nc1c[nH]nc1-c1nc2cc(CN3CCOCC3)ccc2[nH]1)NC1CC1 [AT-9283]
– | – | – | – | > 30 µM (inactive) | – | > 30 µM (inactive) | – | > 30 µM (inactive) | C[C@@H](Oc1cc(-n2cnc3ccc(CN4CCN(C)CC4)cc32)sc1C(N)=O)c1ccccc1C(F)(F)F [GSK-461364]
> 30 µM (inactive) | > 30 µM (inactive) | – | > 30 µM (inactive) | – | > 30 µM (inactive) | > 30 µM (inactive) | > 30 µM (inactive) | > 30 µM (inactive) | NC1(c2ccc(-c3nc4ccn5c(=O)[nH]nc5c4cc3-c3ccccc3)cc2)CCC1 [MK-2206]
– | – | – | – | > 30 µM (inactive) | > 30 µM (inactive) | > 30 µM (inactive) | – | – | NC(=O)c1c(OCc2c(F)cc(Br)cc2F)nsc1NC(=O)NCCCCN1CCCC1 [OSI-632]
0.164 µM (active) | – | – | – | > 30 µM (inactive) | – | > 30 µM (inactive) | – | > 30 µM (inactive) | CC(=O)NCC(=O)N1[C@@H]2CC[C@H]1c1ccc(Nc3ncc(C(F)(F)F)c(NC4CCC4)n3)cc12 [PF-03814735]
– | – | – | – | > 30 µM (inactive) | – | > 30 µM (inactive) | – | > 30 µM (inactive) | O=C(NOCCO)c1cc(CN2OCCCC2=O)c(F)c(F)c1Nc1ccc(I)cc1F [RO-4987655]
